Test results from PMC5428017, “Targeting to the non-genomic activity of retinoic acid receptor-gamma by acacetin in hepatocellular carcinoma” (Scientific Reports, 2017).
Substitutions are numbered along the chain they refer to. pIC50: −log10 of the molar value.

How the values were obtained:
[1] = molecular target: T1, retinoic acid receptor-γ (RARγ) (Homo sapiens, UniProt P13631); assay: competitive radioligand displacement of [3H]atRA from purified RARγ LBD; supported by GFP-RARγ fluorescence quenching in cells and reporter antagonism; format: binding
T1 construct: gene RARG; RARγ LBD
T1 sequence (P13631 185-419 limits assumed): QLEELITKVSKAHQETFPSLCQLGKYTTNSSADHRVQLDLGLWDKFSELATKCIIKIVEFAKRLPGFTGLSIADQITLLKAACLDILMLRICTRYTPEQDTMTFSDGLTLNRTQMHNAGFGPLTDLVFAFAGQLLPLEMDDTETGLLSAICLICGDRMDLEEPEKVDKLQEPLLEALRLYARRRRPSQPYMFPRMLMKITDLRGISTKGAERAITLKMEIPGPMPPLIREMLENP

RARβ = molecular target: T2, RARβ (Homo sapiens, UniProt P10826); assay: competitive radioligand displacement of [3H]atRA from RARβ LBD; format: binding
T2 construct: gene RARB; RARβ LBD
T2 sequence (P10826 183-417 limits assumed): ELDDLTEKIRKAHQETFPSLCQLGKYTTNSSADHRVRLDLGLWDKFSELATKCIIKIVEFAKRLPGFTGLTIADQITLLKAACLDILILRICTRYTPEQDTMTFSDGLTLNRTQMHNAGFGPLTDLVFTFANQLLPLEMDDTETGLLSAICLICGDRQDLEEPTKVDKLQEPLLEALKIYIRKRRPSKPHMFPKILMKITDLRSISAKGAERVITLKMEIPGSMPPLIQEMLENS

[2] = molecular target: T3, retinoic acid receptor-γ (RARγ) (Homo sapiens, UniProt P13631, R278A); assay: Gal4-RARγ luciferase reporter in HEK293T cells, […] atRA; format: cell-based; conditions: 0.1 µM
T3 construct: gene RARG; Gal4-RARγ/R278A
T3 sequence (P13631 185-419 R278A limits assumed): T1 sequence (P13631 185-419 limits assumed) with R94A

RARα = molecular target: T4, RARα (Homo sapiens, UniProt P10276); assay: competitive radioligand displacement of [3H]atRA from RARα LBD; format: binding
T4 construct: gene RARA; RARα LBD
T4 sequence (P10276 183-417 limits assumed): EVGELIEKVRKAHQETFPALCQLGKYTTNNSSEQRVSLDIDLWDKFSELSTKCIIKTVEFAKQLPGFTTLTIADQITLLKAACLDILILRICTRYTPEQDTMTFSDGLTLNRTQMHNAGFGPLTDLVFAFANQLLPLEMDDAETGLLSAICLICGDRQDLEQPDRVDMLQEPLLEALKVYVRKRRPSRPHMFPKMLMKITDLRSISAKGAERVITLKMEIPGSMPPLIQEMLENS

**Q.** With `COc1ccc(-c2cc(=O)c3c(O)cc(O)cc3o2)cc1` [acacetin, 5,7-dihydroxy-4′-methoxyflavone] as the compound, how does the pIC50 [1] read?
**A.** Its pIC50 is 4.89.

**Q.** Which results are given for `CC1=C(/C=C/C(C)=C/C=C/C(C)=C/C(=O)O)C(C)(C)CCC1` [atRA]?
**A.** competitive radioligand displacement of [3H]atRA from RARβ LBD (RARβ): both [^3H]atRA-bound complexes could be displaced by unlabeled atRA but not by acacetin; Gal4-RARγ luciferase reporter in HEK293T cells, 10^-7 M atRA [2]: 22 fold activation; competitive radioligand displacement of [3H]atRA from RARα LBD (RARα): both [^3H]atRA-bound complexes could be displaced by unlabeled atRA but not by acacetin
